From patent US20240254115A1 (ACONDICIONAMIENTO TARRASENSE, priority 2021, published 2024) come the findings set out here.

By pKi is commonly meant the Ki on a negative log10 scale, so that one unit is a factor of ten.

pKi: −log10 of the molar value.

Experiment [1] has as its target T1, human σ1 receptor (Homo sapiens, UniProt Q99720).
T1 construct: expressed in transfected cells; host or cells: HEK-293
In words: Human σ1 receptor radioligand assay. The following applies: transfected HEK-293 membranes, 5 nM [3H](+)-pentazocine, 37° C. 120 minutes; + may also stand for 1-50% inhibition at 1 or 10 μM; read-out: Binding σ-1 Ki. Here is the method: Human σ1 Receptor Radioligand Assay
Transfected HEK-293 membranes (7 μg) were incubated with 5 nM of [^3H](+)-pentazocine in assay buffer containing Tris-HCl 50 mM at pH 8. NBS (non-specific binding) was measured by adding 10 μM haloperidol. The binding of the test compound was measured at either one concentration (% inhibition at 1 or 10 μM) or five different concentrations to determine affinity values (Ki). Plates were incubated at 37° C. for 120 minutes. After the incubation period, the reaction mix was then transferred to MultiScreen HTS, FC plates (Millipore), filtered and plates were washed 3 times with ice-cold 10 mM Tris-HCL (pH7.4). Filters were dried and counted at approximately 40% efficiency in a MicroBeta scintillation counter (Perkin-Elmer) using EcoScint liquid scintillation cocktail.

The target in experiment [2] is T2, human σ2/TMEM97 receptor (Homo sapiens, UniProt Q5BJF2).
T2 construct: expressed in transfected cells; host or cells: HEK-293
In words: Binding assay to human σ2/TMEM97 receptor. The following applies: transfected HEK-293 membranes, 10 nM [3H]-DTG, 25° C. 120 minutes; + may also stand for 1-50% inhibition at 1 or 10 μM; read-out: Binding σ-2 Ki. Here is the method:
Binding Assay to Human σ2/TMEM97 Receptor
Transfected HEK-293 membranes (15 μg) were incubated with 10 nM [^3H]-1,3-Di-o-tolylguanidine (DTG) in assay buffer containing Tris-HCl 50 mM at pH 8.0. NSB (non-specific binding) was measured by adding 10 μM haloperidol. The binding of the test compound was measured at either one concentration (% inhibition at 1 or 10 μM) or five different concentrations to determine affinity values (Ki). Plates were incubated at 25° C. for 120 minutes. After the incubation period, the reaction mix was transferred to MultiScreen HTS, FC plates (Millipore), filtered and washed 3 times with ice-cold 10 mM Tris-HCL (pH 8.0). Filters were dried and counted at approximately 40% efficiency in a MicroBeta scintillation counter (Perkin-Elmer) using EcoScint liquid scintillation cocktail.

T1 sequence (Q99720 whole entry): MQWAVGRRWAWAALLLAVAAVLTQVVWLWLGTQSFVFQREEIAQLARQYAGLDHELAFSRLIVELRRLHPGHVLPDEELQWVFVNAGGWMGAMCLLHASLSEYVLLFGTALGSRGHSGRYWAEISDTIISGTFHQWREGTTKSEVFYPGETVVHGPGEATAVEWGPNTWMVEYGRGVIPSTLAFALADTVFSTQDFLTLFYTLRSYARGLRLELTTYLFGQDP
T2 sequence (Q5BJF2 whole entry): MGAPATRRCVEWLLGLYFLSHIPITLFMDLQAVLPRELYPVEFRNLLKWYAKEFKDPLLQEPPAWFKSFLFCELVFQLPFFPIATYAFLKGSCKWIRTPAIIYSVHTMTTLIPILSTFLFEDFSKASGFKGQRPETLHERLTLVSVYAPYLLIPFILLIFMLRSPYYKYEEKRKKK

Regarding `CN(CC1CCOCC1)[C@H]1CC[C@H](NS(=O)(=O)c2ccc(N3CCC4(CCCO4)CC3)nc2)CC1` [Example 177, N-((1r,4r)-4-(Methyl((tetrahydro-2H-pyran-4-yl)methyl)amino)cyclohexyl)-6-(1-oxa-8-azaspiro[4.5]decan-8-yl)pyridine-3-sulfonamide], the negative logarithm of the Ki (pKi) in experiment [1] was below 6.00; in experiment [2], above 7.00.
Consider `CN(Cc1ccccc1)[C@H]1CC[C@H](NS(=O)(=O)c2ccc(N3CCC4(CCCO4)CC3)nc2)CC1` [Example 176, N-((1r,4r)-4-(Benzyl(meth-yl)amino)cyclohexyl)-6-(1-oxa-8-azaspiro[4.5]decan-8-yl)pyridine-3-sulfonamide], for which the pKi in experiment [1] was below 6.00; in experiment [2] it was above 7.00.
As for `O=S(=O)(N[C@H]1CC[C@H](NCc2cccc(F)c2)CC1)c1ccc(N2CCOCC2)nc1` [Example 54, N-((1r,4r)-4-((3-Fluorobenzyl)amino)cyclohexyl)-6-morpholinopyridine-3-sulfonamide], the negative-log Ki (pKi) in experiment [1] and in experiment [2] was 6.30 to 7.00 each time.
Regarding `O=C1OCCN1c1ccc(S(=O)(=O)N2CCCC3(CCN(Cc4ccccc4F)CC3)C2)cn1` [Example 159, 3-(5-((9-(2-Fluorobenzyl)-2,9-diazaspiro[5.5]undecan-2-yl)sulfonyl)pyridin-2-yl)oxazolidin-2-one], the negative logarithm of the Ki (pKi) in experiment [1] and in experiment [2] was above 7.00 throughout.
Turning to `CN(Cc1ccccc1F)C1CCN(S(=O)(=O)c2ccc(N3CCC(F)(F)CC3)nc2)CC1` [Example 172, 1-((6-(4,4-Difluoropiperidin-1-yl)pyridin-3-yl)sulfonyl)-N-(2-fluorobenzyl)-N-methylpiperidin-4-amine], the negative-log Ki (pKi) in experiment [1] and in experiment [2] was above 7.00 in each case.
For `CC(C)(C)CCN1CCC2(CC1)CCN(S(=O)(=O)c1ccc(N3CCOCC3=O)nc1)CC2` [Example 131, 4-(5-((9-(3,3-Dimethylbutyl)-3,9-diazaspiro[5.5]undecan-3-yl)sulfonyl)pyridin-2-yl)morpholin-3-one], the pKi was 6.30 to 7.00 in experiment [1] and above 7.00 in experiment [2].
The matching figures for `N#Cc1cc(CN2CCC3(CC2)CCN(S(=O)(=O)c2ccc(N4CCOC4=O)nc2)C3)ccc1F` [Example 165, 2-Fluoro-5-((2-((6-(2-oxooxazolidin-3-yl)pyridin-3-yl)sulfonyl)-2,8-diazaspiro[4.5]decan-8-yl)methyl)benzonitrile]: below 6.00 and 6.30 to 7.00.
For `CC(C)(C)CCN1CCCC2(CCN(S(=O)(=O)c3ccc(N4CCC(F)(F)CC4)nc3)CC2)C1` [Example 76, 9-((6-(4,4-Difluoropiperidin-1-yl)pyridin-3-yl)sulfonyl)-2-(3,3-dimethylbutyl)-2,9-diazaspiro[5.5]undecane], the pKi in experiment [1] and in experiment [2] was above 7.00 in each case.
`CN(CC(C)(C)C)C1CCN(S(=O)(=O)c2ccc(N3CCC(F)(F)CC3)nc2)CC1` [Example 100, 1-((6-(4,4-Difluoropiperidin-1-yl)pyridin-3-yl)sulfonyl)-N-methyl-N-neopentylpiperidin-4-amine]: the negative logarithm of the Ki (pKi) in experiment [1] and in experiment [2] was above 7.00 in each case.
As for `N#Cc1cc(CN[C@H]2CC[C@H](NS(=O)(=O)c3ccc(N4CCOCC4)nc3)CC2)ccc1F` [Example 52, N-((1r,4r)-4-((3-Cyano-4-fluorobenzyl)amino)cyclohexyl)-6-morpholinopyridine-3-sulfonamide], the values for the negative-log Ki (pKi) in experiment [1] and in experiment [2] were below 6.00 and 6.30 to 7.00, respectively.
The matching figures for `O=C1OCCN1c1ccc(S(=O)(=O)N2CCC3(CCN(Cc4cc(F)ccc4F)CC3)C2)cn1` [Example 162, 3-(5-((8-(2,5-Difluorobenzyl)-2,8-diazaspiro[4.5]decan-2-yl)sulfonyl)pyridin-2-yl)oxazolidin-2-one]: below 6.00 and above 7.00.
Regarding `CN(C)c1ccc(S(=O)(=O)N2CCCC3(CCN(CCC(C)(C)C)CC3)C2)cn1` [Example 97, 5-((9-(3,3-Dimethylbutyl)-2,9-diazaspiro[5.5]undecan-2-yl)sulfonyl)-N,N-dimethylpyridin-2-amine], the negative-log Ki (pKi) in experiment [1] and in experiment [2] was above 7.00 each time.
For the compound `C[C@@H]1CN(Cc2ccccc2)C[C@H]1NS(=O)(=O)c1ccc(N2CCOCC2)nc1` [Example 14, N-((3S,4R)-1-Benzyl-4-methylpyrrolidin-3-yl)-6-morpholinopyridine-3-sulfonamide], the pKi is above 7.00 in experiment [1] and below 6.00 in experiment [2].
On to `CC(C)(C)CCN1CCC2(CC1)CCN(S(=O)(=O)c1ccc(N3CCC(F)(F)CC3)nc1)CC2` [Example 70, 3-((6-(4,4-Difluoropiperidin-1-yl)pyridin-3-yl)sulfonyl)-9-(3,3-dimethylbutyl)-3,9-diazaspiro[5.5]undecane], for which the pKi in experiment [1] and in experiment [2] was above 7.00 throughout.
`CC(C)(C)CCN1CCC2(CC1)CCN(S(=O)(=O)c1cnc(N3CCOC3=O)c(F)c1)CC2` [Example 140, 3-(5-((9-(3,3-Dimethylbutyl)-3,9-diazaspiro[5.5]undecan-3-yl)sulfonyl)-3-fluoropyridin-2-yl)oxazolidin-2-one]: the pKi is 6.30 to 7.00 in experiment [1] and above 7.00 in experiment [2].
`CC(C)(C)CCN1CCC2(CCCN(S(=O)(=O)c3ccc(N4CCOCC4)nc3)C2)CC1` [Example 88, 4-(5-((9-(3,3-Dimethylbutyl)-2,9-diazaspiro[5.5]undecan-2-yl)sulfonyl)pyridin-2-yl)morpholine]: the pKi in experiment [1] and in experiment [2] was above 7.00 throughout.
As to `CC(C)(C)CCN1CCC2(CC1)CCN(S(=O)(=O)c1ccc(N3CCCC3=O)nc1)CC2` [Example 133, 1-(5-((9-(3,3-Dimethylbutyl)-3,9-diazaspiro[5.5]undecan-3-yl)sulfonyl)pyridin-2-yl)pyrrolidin-2-one], the negative logarithm of the Ki (pKi) in experiment [1] is 6.30 to 7.00; in experiment [2] it was above 7.00.
On to `N#Cc1ccc(CN2CCC(NS(=O)(=O)c3ccc(N4CCOCC4)nc3)CC2)cc1` [Example 11, N-(1-(4-Cyanobenzyl)piperidin-4-yl)-6-morpholinopyridine-3-sulfonamide], for which the pKi was above 7.00 in experiment [1] and below 6.00 in experiment [2].
The matching figures for `CC(C)(C)CCN1CCC2(CCCN(S(=O)(=O)c3ccc(N4CCC5(CCOC5)CC4)nc3)C2)CC1` [Example 95, 8-(5-((9-(3,3-Dimethylbutyl)-2,9-diazaspiro[5.5]undecan-2-yl)sulfonyl)pyridin-2-yl)-2-oxa-8-azaspiro[4.5]decane]: above 7.00 and above 7.00.
The like results for `O=C1OCCN1c1ccc(S(=O)(=O)N2CCC3(CCCN(Cc4cc(F)ccc4F)C3)CC2)cn1` [Example 146, 3-(5-((2-(2,5-Difluorobenzyl)-2,9-diazaspiro[5.5]undecan-9-yl)sulfonyl)pyridin-2-yl)oxazolidin-2-one] were, in that order, 6.00 to 6.30 and 6.00 to 6.30.
The matching figures for `CN(Cc1ccc(F)c(F)c1)[C@H]1CC[C@H](NS(=O)(=O)c2ccc(N3CCC4(CCOC4)CC3)nc2)CC1` [Example 180, N-((1r,4r)-4-((3,4-Difluoro-benzyl)(methyl)amino)cyclohexyl)-6-(2-oxa-8-azaspiro[4.5]decan-8-yl)pyridine-3-sulfonamide]: below 6.00 and above 7.00.
For `CC(C)CCN1CCCC2(CCN(S(=O)(=O)c3ccc(N4CCC(F)(F)CC4)nc3)CC2)C1` [Example 77, 9-((6-(4,4-Difluoropiperidin-1-yl)pyridin-3-yl)sulfonyl)-2-isopentyl-2,9-diazaspiro[5.5]undecane], the negative-log Ki (pKi) in experiment [1] and in experiment [2] was above 7.00 in each case.
In the case of `O=S(=O)(NC1CCN(Cc2ccc(Cl)cc2)CC1)c1ccc(N2CCOCC2)nc1` [Example 10, N-(1-(4-Chlorobenzyl)piperidin-4-yl)-6-morpholinopyridine-3-sulfonamide], the negative-log Ki (pKi) is above 7.00 in experiment [1] and below 6.00 in experiment [2].
The matching figures for `CC(=O)Nc1ccc(S(=O)(=O)N2CCCC3(CCN(CCC(C)(C)C)CC3)C2)cn1` [Example 107, N-(5-((9-(3,3-Dimethylbutyl)-2,9-diazaspiro[5.5]undecan-2-yl)sulfonyl)pyridin-2-yl)acetamide]: 6.30 to 7.00 and above 7.00.
The like results for `CN(Cc1ccccc1)[C@H]1CC[C@H](NS(=O)(=O)c2ccc(N3CCCOCC3)nc2)CC1` [Example 32, N-((1r,4r)-4-(Benzyl(methyl)amino)cyclohexyl)-6-(1,4-oxazepan-4-yl) pyridine-3-sulfonamide] were, in that order, 6.30 to 7.00 and above 7.00.
Regarding `CC(C)(C)CCN1CCC2(CC1)CCN(S(=O)(=O)c1ccc(N3CCCCC3=O)nc1)CC2` [Example 132, 1-(5-((9-(3,3-Dimethylbutyl)-3,9-diazaspiro[5.5]undecan-3-yl)sulfonyl)pyridin-2-yl)piperidin-2-one], the negative-log Ki (pKi) in experiment [1] is 6.30 to 7.00; in experiment [2] it was above 7.00.
